# Measurements taken from publication PMC5234788 (PLoS ONE, 2017).
# What was measured:
# Assay type in all cases: in vivo
# [1] = system: male CD-1 ICR mice; assay: Locomotor activity test; conditions: DZP 2 mg/kg, i.p., 60 min
# Excerpt: The spontaneous activity video analysis system consists of 8 sound-attenuated chambers (40 cm × 40 cm × 65 cm) with a built-in infrared camera. (JL Behave, Shanghai Ji-Liang Software Technology Co., Ltd). During the behavioral tests, the experimenter was outside the testing room, and the chambers were cleaned between successive runs. Forty male CD-1 ICR mice were allowed to acclimate for three days in home cages and were handled for another three days to minimize stress after arrival in the animal facility. On the following day, after habituation to the activity chambers for 60 min, mice were administered vehicle, diazepam (DZP, 2 mg/kg, i.p.) or l–THBr (1, 5, or 10 mg/kg, i.p.) and immediately placed into the test chambers to record their locomotor activity for 60 min.
# [2] = system: male CD-1 ICR mice; assay: Light-dark box test; conditions: DZP 2 mg/kg, 30 min before test, P < 0.05 vs vehicle
# Excerpt: The light-dark box test is a sensitive model to detect activity in disorders related to anxiety, based on the innate aversion of rodents to brightly lit areas and on their spontaneous exploratory behavior in response to a novel environment. The light-dark transition box is a polypropylene animal cage (44 cm × 21 cm × 21 cm), which is divided into two compartments, a light box (illuminated by a 60 W light source with 1000 lx light intensity) and a dark box. Forty-eight male CD-1 ICR mice were placed in the light box 30 min after l–THBr or DZP injection and allowed to move freely to both boxes for 5 min. The number of transitions between the two boxes were recorded by a video camera.
# [3] = system: male CD-1 ICR mice; assay: Elevated plus-maze test; conditions: DZP 2 mg/kg, i.p., P < 0.05 vs control
# Excerpt: The elevated plus-maze test is widely used for the screening and evaluation of anxiolytic drugs. The apparatus consists of two open arms (30 cm × 5 cm) and two enclosed arms (30 cm × 5 cm × 15 cm), which is elevated 45 cm above the ground. The entire maze was made of clear Plexiglas and illuminated by four 30 W white lights with 300 lx light intensity arranged as a cross 100 cm above the maze. 48 male CD-1 ICR mice were randomly divided into either the vehicle group, one of three doses of l–THBr groups, or the diazepam group. 30 min after injection, mice were gently placed on the center platform facing an open arm, and the number of entries and the time spent in both arms were recorded by a video camera for 5 min. The results were expressed as the percentage of entries into the open arms (%) = (the number of entries into the open arms / the total number of entries into the four arms) × 100%; and the percentage of time spent in the open arms (%) = (time spent in the open arms / total time spent in the four arms) × 100%.
# In a separate experiment, WAY100635 (a 5-HT1A antagonist) was used to test whether the anxiolytic-like activity of l-THBr is mediated by the activation of the 5-HT1A receptor. Forty male CD-1 ICR mice were randomly divided into one of four groups: vehicle, WAY100635 (3 mg/kg, i.p.), l–THBr (5 mg/kg, i.p.) or WAY100635 (3 mg/kg, i.p.) + l–THBr (5 mg/kg, i.p.). Mice were administered vehicle or WAY100635 followed by vehicle or l–THBr (5 mg/kg) injections 15 min later. The test was performed 30 min after the administration of l-THBr or vehicle.
smiles,measurement,setting,value
"CN1C(=O)CN=C(c2ccccc2)c2cc(Cl)ccc21 [Diazepam, reference compound]",influence on locomotor activity (travel distance),[1],no influence
same,number of transitions between the light/dark sides,[2],increased
same,percentage of entries into the open arms,[3],significant increase
same,percentage of time spent in the open arms,[3],significant increase
